From patent US12071624B2, “Antisense oligonucleotide targeting ARL4C molecule, and nucleic acid drug using antisense oligonucleotide” (OSAKA UNIVERSITY, priority 2018, dated 2024)
[AmNA] = 2',4'-bridged nucleic acid with N-methyl amide bridge (AmNA); d = 2'-deoxy (DNA)

What was measured:
[1] = test system: neurolysin (NLN) mRNA; experiment: Off-target gene mRNA by real-time PCR in HLE cells (NLN); assay type: cell-based, human; settings: HLE cells transfected at 25 nM
Method: Potential off-target genes in ARL4C ASO (hARL4C ASO-1316-AmNA [15-mer] (ARL4C ASO-1316) and hARL4C-3223-AmNA [19-mer] (ARL4C ASO-3223)) were identified by using database “Human Genomic plus Transcript (Human G+T)” (Build 2.7.1) as well as basic local alignment search tools (BLAST+programs) using MegaBlast algorithm.
(§1) Cell migration assays and quantitative real-time PCR analyses were performed according to the methods reported by Fujii S et al. (Oncogene 2015; 34: 4834-44).
Four genes of neurolysin (NLN), sapiens F-box and leucine-rich repeat protein 19 (FBXL19), keratin-associated protein 15-1 (KRTAP15-1), and sialic acid binding Ig-like lectin 6 (SIGLEC6) were identified as candidates for off-target genes of ASO-1316 and ASO-3223 by in silico analysis. HLE cells were transfected with ASO-1316 and ASO-3223 at 25 nM each, and mRNA amounts of NLN and FBXL19 were measured by real-time PCR; the results are shown in (d) of FIG. 3. […] In addition, KRTAP15-1 and SIGLEC6 were only slightly expressed in the HLE cells (data not shown).

[2] = test system: ARL4C mRNA; experiment: ARL4C mRNA amount by real-time PCR in HLE cells; assay type: cell-based, human; settings: for effect of reducing the ARL4C mRNA amount at a low concentration: HLE cells transfected at 0.5 to 25 nM
Method: (§2) HLE cells, HCT116 cells, and A549 cells were transfected with 25 to 50 nM ASO and 10 to 20 nM siRNA using Lipofectamine 3000 (Invitrogen, Carlsbad, CA, USA) or RNAiMAX (Invitrogen). Transfected cells were used in the experiments 36 to 48 hours after the end of the transfection.
as §1
HLE cells and HCT116 cells were transfected with the above-described seven types of ARL4C ASOs and the control ASO at 25 nM, and the ARL4C mRNA amounts were measured by real-time PCR; the results thereof are shown in (a) of FIG. 4. […] In order to optimize the effect of these three types of ARL4C ASOs, four bases were added to each of these three types of ARL4C ASOs, whereby ASO-1312, ASO-1450, and ASO-3223 each of which consisted of 19 bases were produced. With these six types of ARL4C ASOs (ASO-1316, ASO-1312, ASO-1454, ASO-1450, ASO-3225, and ASO-3223), the knockdown effect on ARL4C was further studied.
HLE cells were transfected with ARL4C ASOs (ASO-1316, ASO-1312, ASO-1454, ASO-1450, ASO-3225, and ASO-3223) at 25 nM each, and the ARL4C mRNA amounts were measured by real-time PCR; the results are shown in (c) of FIG. 3. In addition, HLE cells were transfected with ARL4C ASOs (ASO-1316, ASO-1312, ASO-3225, and ASO-3223) at 0.5 to 25 nM each, and the ARL4C mRNA amounts were measured by real-time PCR; the results are shown in (b) of FIG. 4.
HLE cells were treated with 10 μM PD184161 or 10 nM CTNNB1 siRNA (siRNA against CTNNB1), and the ARL4C mRNA amount was measured by real-time PCR; the results are shown in (a) of FIG. 5. In addition, HLE cells were treated with 10 nM CTNNB1 siRNA (siRNA against CTNNB1), and the ARL4C mRNA amount was measured by real-time PCR; the results thereof are shown in (a) of FIG. 6. PD184161 is a compound that inhibits MEK without knocking down […].

[3] = test system: HCT116 cells; experiment: Cell migration assay in HCT116 cells; assay type: cell-based; settings: HCT116 cells transfected at 25 nM
Method: as §2, §1
In addition, HCT116 cells were transfected with control ASO, ASO-1316 and ASO-3223 at 25 nM, and a cell migration assay was carried out; the results are shown in (e) of FIG. 3.

[4] = test system: PIK3CD mRNA; experiment: PIK3CD mRNA amount by real-time PCR in HLE cells; assay type: cell-based, human; settings: HLE cells transfected with ASO at 25 nM
Method: as §2, §1
HLE cells were treated with 25 μM SecinH3 (inhibitor of Arf nucleotide-binding site opener (ARNO)) or 50 μM NSC23766 (Rac inhibitor), and the amount of PIK3CD mRNA was measured by real-time PCR; the results are shown in (c) of FIG. 5.
HLE cells were transfected with control ASO, ASO-1316, and ASO-3223 at 25 nM, and the PIK3CD mRNA amount was measured by real-time PCR; the results are shown in (g) of FIG. 5. In addition, an anti-phosphorylated AKT (pAKT S473) antibody and an anti-AKT antibody as probes were caused to act on cell lysates of HLE cells transfected with control ASO, ASO-1316, and ASO-3223; the results are shown in (h) of FIG. 5.

[5] = test system: HLE cells; experiment: Cell migration assay in HLE/GFP and HLE/ARL4C-GFP cells; assay type: cell-based; settings: HLE/GFP or HLE/ARL4C-GFP cells transfected at 25 nM
From the text: HLE cells allowing for the stable expression of GFP (HLE/GFP cells), HLE cells allowing for the stable expression of ARL4c-GFP with GFP fused to the C-terminal side (HLE/ARL4C-GFP cells, i.e., cells in which ARL4C-GFP is transduced and stably expressed), HCT116 cells allowing for the stable expression of luciferase (HCT116/Luc cells), A549 cells allowing for the stable expression of luciferase (A549/Luc cells), and S2-CP8 cells allowing for the stable expression of luciferase (S2-CP8/Luc cells) were produced using lentivirus according to the method reported by Matsumoto S et al. (EMBO J 2014; 33: 702-18) and Fujii S et al. (Oncogene 2015; 34: 4834-44). In addition, ARL4C-GFP is ARL4C with GFP fused thereto.
as §2
Cell migration assays and quantitative real-time PCR analyses were performed according to the methods reported by Fujii S et al. (Oncogene 2015; 34: 4834-44). […]

## ASO-3223: 19-mer ARL4C ASO of Table 1, SEQ ID NO 55 (antisense NNNGGTTACAGTATTTNNC; sugars from the 5' end [AmNA]3 d13 [AmNA]2 d1, backbone, methylation of C and the base at N not given here; further chemistry not fully specified)
[1]
  NLN mRNA amount (off-target): did not significantly affect the expression
[2]
  effect of reducing the ARL4C mRNA amount at a low concentration: high effects of reducing the ARL4C mRNA amount
[3]
  cell migration: suppress the migration of HCT116 cells
[4]
  PIK3CD mRNA amount / PIK3CD expression: suppressing PIK3CD expression
[5]
  cell migration: suppress the migration of HLE cells

## ASO-1316: 15-mer AmNA/phosphorothioate ASO targeting ARL4C, base sequence SEQ ID NO: 1 gcatacctcaggtaa; Table 1 SEQ ID NO 13 (antisense GCATACCTCAGGTAA; AmNA and phosphorothioate modified, pattern not given here)
[1]
  NLN mRNA amount (off-target): did not significantly affect the expression
[2]; HLE cells transfected at 25 nM
  ARL4C mRNA amount: reduced the ARL4C mRNA amount
[2]
  effect of reducing the ARL4C mRNA amount at a low concentration: high effects of reducing the ARL4C mRNA amount
[3]
  cell migration: suppress the migration of HCT116 cells
[4]
  PIK3CD mRNA amount / PIK3CD expression: suppressing PIK3CD expression
[5]
  cell migration: suppress the migration of HLE cells
